Measurements taken from PubChem BioAssay AID1963828 (Molecular Pharmacology Branch, DTP, NCI, 2024).

Tested on: 991263-137-R1-J2-PDC complex spheroid viability
Experiment: Anticancer human tumor 991263-137-R1-J2-PDC patient-derived colon adenocarcinoma cell line growth inhibition [POLQ]
Settings: for IC50: curve of first compound; for viability, T/C: stronger effect = lower value
In short: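 Complex spheroid viability model combining PDC tumour cells with endothelial (HUVEC) and MSC stromal cells. Novobiocin, ART-558 or RP6685 were tested singly and in combination with standard and investigational anticancer drugs. Each was titrated in half-log steps from near clinical Cmax, or from 10 microM where Cmax was unknown.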

[1] = second compound 0.0316 µM, first compound 0.0316 µM
[2] = second compound 0.0316 µM, first compound 0.1 µM
[3] = second compound 0.0316 µM, first compound 0.316 µM
[4] = second compound 0.0316 µM, first compound 1 µM
[5] = second compound 0.0316 µM, first compound 3.16 µM
[6] = second compound 0.0316 µM, first compound 10 µM
[7] = second compound 0.1 µM, first compound 0.0316 µM
[8] = second compound 0.1 µM, first compound 0.1 µM
[9] = second compound 0.1 µM, first compound 0.316 µM
[10] = second compound 0.1 µM, first compound 1 µM
[11] = second compound 0.1 µM, first compound 3.16 µM
[12] = second compound 0.1 µM, first compound 10 µM
[13] = second compound 0.316 µM, first compound 0.0316 µM
[14] = second compound 0.316 µM, first compound 0.1 µM
[15] = second compound 0.316 µM, first compound 0.316 µM
[16] = second compound 0.316 µM, first compound 1 µM
[17] = second compound 0.316 µM, first compound 3.16 µM
[18] = second compound 0.316 µM, first compound 10 µM
[19] = second compound 1 µM, first compound 0.0316 µM
[20] = second compound 1 µM, first compound 0.1 µM
[21] = second compound 1 µM, first compound 0.316 µM
[22] = second compound 1 µM, first compound 1 µM
[23] = second compound 1 µM, first compound 3.16 µM
[24] = second compound 1 µM, first compound 10 µM
[25] = second compound 3.16 µM, first compound 0.0316 µM
[26] = second compound 3.16 µM, first compound 0.1 µM
[27] = second compound 3.16 µM, first compound 0.316 µM
[28] = second compound 3.16 µM, first compound 1 µM
[29] = second compound 3.16 µM, first compound 3.16 µM
[30] = second compound 3.16 µM, first compound 10 µM
[31] = second compound 10 µM, first compound 0.0316 µM
[32] = second compound 10 µM, first compound 0.1 µM
[33] = second compound 10 µM, first compound 0.316 µM
[34] = second compound 10 µM, first compound 1 µM
[35] = second compound 10 µM, first compound 3.16 µM
[36] = second compound 10 µM, first compound 10 µM
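Note: spheroids exposed to compounds for 7 days before readout.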
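Throughout, for viability, T/C: 100% = DMSO vehicle control viability.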

## C=CC(=O)N1CCN(c2nc(=O)n(-c3c(C)ccnc3C(C)C)c3nc(-c4c(O)cccc4F)c(F)cc23)C(C)C1 (stereo unspecified) + Nc1ccc(C#CCN(C(=O)Cc2ncc(C(F)(F)F)cc2C(F)(F)F)c2ccc(F)cc2)nn1
Second compound 0.0316 µM
  IC50: > 10 µM
Second compound 0.1 µM
  IC50: > 10 µM
Second compound 0.316 µM
  IC50: > 10 µM
Second compound 1 µM
  IC50: > 10 µM
Second compound 3.16 µM
  IC50: > 10 µM
Second compound 10 µM
  IC50: > 10 µM
[1]
  viability, T/C: 108%
[2]
  viability, T/C: 100%
[3]
  viability, T/C: 99.3%
[4]
  viability, T/C: 96.5%
[5]
  viability, T/C: 109%
[6]
  viability, T/C: 116%
[7]
  viability, T/C: 102%
[8]
  viability, T/C: 104%
[9]
  viability, T/C: 114%
[10]
  viability, T/C: 98%
[11]
  viability, T/C: 117%
[12]
  viability, T/C: 105%
[13]
  viability, T/C: 104%
[14]
  viability, T/C: 105%
[15]
  viability, T/C: 102%
[16]
  viability, T/C: 96.7%
[17]
  viability, T/C: 113%
[18]
  viability, T/C: 106%
[19]
  viability, T/C: 110%
[20]
  viability, T/C: 105%
[21]
  viability, T/C: 107%
[22]
  viability, T/C: 97.7%
[23]
  viability, T/C: 107%
[24]
  viability, T/C: 100%
[25]
  viability, T/C: 94.5%
[26]
  viability, T/C: 85.6%
[27]
  viability, T/C: 102%
[28]
  viability, T/C: 102%
[29]
  viability, T/C: 106%
[30]
  viability, T/C: 110%
[31]
  viability, T/C: 96.6%
[32]
  viability, T/C: 107%
[33]
  viability, T/C: 90.6%
[34]
  viability, T/C: 117%
[35]
  viability, T/C: 99.8%
[36]
  viability, T/C: 100%

## CC(C)n1c(=O)n(C)c2cnc3cc(F)c(-c4ccc(OCCCN5CCCCC5)nc4)cc3c21 + Cc1cccc(N(C)C(=O)C2C(O)CCN2c2nc(C)cc(C(F)(F)F)c2C#N)c1
Second compound 0.0316 µM
  IC50: > 10 µM
Second compound 0.1 µM
  IC50: > 10 µM
Second compound 0.316 µM
  IC50: > 10 µM
Second compound 1 µM
  IC50: > 10 µM
Second compound 3.16 µM
  IC50: > 10 µM
Second compound 10 µM
  IC50: > 10 µM
[1]
  viability, T/C: 98.9%
[2]
  viability, T/C: 97.1%
[3]
  viability, T/C: 99.3%
[4]
  viability, T/C: 90.9%
[5]
  viability, T/C: 98.3%
[6]
  viability, T/C: 83.9%
[7]
  viability, T/C: 96.6%
[8]
  viability, T/C: 99.9%
[9]
  viability, T/C: 115%
[10]
  viability, T/C: 90.7%
[11]
  viability, T/C: 74%
[12]
  viability, T/C: 79%
[13]
  viability, T/C: 83.8%
[14]
  viability, T/C: 101%
[15]
  viability, T/C: 102%
[16]
  viability, T/C: 106%
[17]
  viability, T/C: 109%
[18]
  viability, T/C: 80.4%
[19]
  viability, T/C: 92.1%
[20]
  viability, T/C: 99.5%
[21]
  viability, T/C: 116%
[22]
  viability, T/C: 90.8%
[23]
  viability, T/C: 99.1%
[24]
  viability, T/C: 81.2%
[25]
  viability, T/C: 85.9%
[26]
  viability, T/C: 98.3%
[27]
  viability, T/C: 90.2%
[28]
  viability, T/C: 101%
[29]
  viability, T/C: 109%
[30]
  viability, T/C: 61.3%
[31]
  viability, T/C: 82%
[32]
  viability, T/C: 104%
[33]
  viability, T/C: 86.7%
[34]
  viability, T/C: 80.1%
[35]
  viability, T/C: 111%
[36]
  viability, T/C: 67.2%

## CCCS(=O)(=O)Nc1ccc(F)c(C(=O)c2c[nH]c3ncc(-c4ccc(Cl)cc4)cc23)c1F + Cc1cccc(N(C)C(=O)C2C(O)CCN2c2nc(C)cc(C(F)(F)F)c2C#N)c1
Second compound 0.0316 µM
  IC50: > 10 µM
Second compound 0.1 µM
  IC50: > 10 µM
Second compound 0.316 µM
  IC50: > 10 µM
Second compound 1 µM
  IC50: > 10 µM
Second compound 3.16 µM
  IC50: > 10 µM
Second compound 10 µM
  IC50: > 10 µM
[1]
  viability, T/C: 112%
[2]
  viability, T/C: 98.6%
[3]
  viability, T/C: 98%
[4]
  viability, T/C: 103%
[5]
  viability, T/C: 106%
[6]
  viability, T/C: 99.9%
[7]
  viability, T/C: 103%
[8]
  viability, T/C: 109%
[9]
  viability, T/C: 105%
[10]
  viability, T/C: 114%
[11]
  viability, T/C: 106%
[12]
  viability, T/C: 104%
[13]
  viability, T/C: 101%
[14]
  viability, T/C: 102%
[15]
  viability, T/C: 85.2%
[16]
  viability, T/C: 97.5%
[17]
  viability, T/C: 101%
[18]
  viability, T/C: 106%
[19]
  viability, T/C: 96.8%
[20]
  viability, T/C: 97.5%
[21]
  viability, T/C: 95.5%
[22]
  viability, T/C: 95.7%
[23]
  viability, T/C: 100%
[24]
  viability, T/C: 92.3%
[25]
  viability, T/C: 99.8%
[26]
  viability, T/C: 96.7%
[27]
  viability, T/C: 93.5%
[28]
  viability, T/C: 99.1%
[29]
  viability, T/C: 109%
[30]
  viability, T/C: 84.5%
[31]
  viability, T/C: 101%
[32]
  viability, T/C: 98.5%
[33]
  viability, T/C: 97.3%
[34]
  viability, T/C: 92.5%
[35]
  viability, T/C: 101%
[36]
  viability, T/C: 89.2%
